For experiment [1], the target named is T1, ALDH9A1 (Homo sapiens, UniProt P49189).
T1 construct: recombinant ALDH9A1
Briefly: inhibition of TMABAL oxidation by purified enzyme (NADH formation); preincubation and dialysis; also slow substrate. The experiment is classed as biochemical.

The target of experiment [2] is T1, ALDH9A1. Briefly: MST (RED-tris-NTA labelled enzyme); also NADH-formation activity assay. The class given is binding.
In experiment [3] the target is T1, ALDH9A1. Briefly: MST; also inhibition of TMABAL and ABAL oxidation at […]. The class given is binding.

Among the data in PMC10619140, “Thinking outside the CaaX-box: an unusual reversible prenylation on ALDH9A1” (RSC Chemical Biology, 2023) are IC50 and Kd values, retold here.

Broadly, the IC50 is the concentration needed to halve the response being measured. Higher therefore signals weaker potency. The term Kd denotes the free concentration of one partner at which half of the binding sites on the other are occupied at equilibrium, for simple one-to-one binding. High values mean a looser complex, low ones a tighter complex.

T1 sequence (P49189 whole entry): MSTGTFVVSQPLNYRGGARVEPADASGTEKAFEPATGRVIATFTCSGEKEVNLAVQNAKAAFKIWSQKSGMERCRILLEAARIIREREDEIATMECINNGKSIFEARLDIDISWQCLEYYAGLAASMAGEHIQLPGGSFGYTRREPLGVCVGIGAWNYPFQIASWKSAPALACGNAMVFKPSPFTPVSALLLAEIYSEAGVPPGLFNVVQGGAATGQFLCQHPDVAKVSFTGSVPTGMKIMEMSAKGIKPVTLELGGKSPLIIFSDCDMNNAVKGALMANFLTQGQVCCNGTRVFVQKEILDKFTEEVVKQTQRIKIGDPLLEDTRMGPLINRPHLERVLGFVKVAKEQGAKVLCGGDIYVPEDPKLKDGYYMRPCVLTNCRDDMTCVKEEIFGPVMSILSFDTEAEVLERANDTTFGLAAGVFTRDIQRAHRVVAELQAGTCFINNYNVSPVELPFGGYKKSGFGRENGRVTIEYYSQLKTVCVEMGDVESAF

In the case of `CC(C)=CCC/C(C)=C/CC/C(C)=C/C=O` [FCHO, farnesal], the IC50 at ALDH9A1 [1] is about 10 µM. In turn, `C[N+](C)(C)CCCC=O` [TMABAL] had a Kd at ALDH9A1 [2] of 11 µM.

At ALDH9A1 [3], `C[N+](C)(C)NCCC(=O)[O-]` [meldonium, 3-(2,2,2-trimethylhydrazinium) propionate] returned a Kd of 1200 µM. That is a millimolar value.
